Results reported in patent US20260035722A1, “METHOD FOR LIQUEFYING AGAROSE AND PRODUCING NEOAGAROTETRAOSE/NEOAGAROHEXAOSE BY USING THERMOSTABLE GH16B BETA-AGARASE DERIVED FROM NOVEL AGAR-DEGRADING BACTERIUM” (Kyungpook National University Industry-Academic Cooperation …, priority 2022, published 2026).

B1: GH16B β-agarase: Thermostable endolytic GH16 family β-agarase (SEQ ID NO: 1, 597 aa, 63.8 kDa) from Cellvibrio sp. KY-GH-1, expressed in E. coli (protein, listed as Cellvibrio sp.)
chain: MKKITSCIAAALLLSAPLASFAADWDSVPIPAAAGTGKTWQLQSISDEFNYTASPTVKPAEFNTRWNPSFINSWTGPGDSEFNAGHSYTSGGSLALQSSAKAGTNKIYTGIISSKETFTYPLYLEARVKHTGNTLANAVWMLSADSTQEIDAMESYGSDRAGQEWFDQRMHVSHHVFIRSPFQDYQPKDEGSWVVNPAGGTWRGAMHVYGVHWKDPWNLDYYIDGVKVRTVSGPAMIDPYNFTNGTGINKPLHIIIDVEHQDWRDVRPTAAELADTSKSIMFVDWIRVYKPVTSSATSSSNSVSSSSSSLSNSSSSSATTVIDFANYFDTGKSTASVAGDTYVGFNKSGSGNINYNTAGDWADYLVTLPSDGQYKIEVTTASPMTSGIGAKLSVDGIYVSTTSLAATGGWELYSASTLANNLSIGAGTHTVRIESTGTSAWQWNGDEIRVTKVGSAPVGSPTTPAPVAMIIQAESFSATGGVYDGFKTYSVNGVSAINYNQRGDWADYAVNVAADGSYTFNAYVSSPMSGAALEVSVDGVKVLTQAVPNNGSWDSFQKVSSASKIALTKGAHTIRVTSAGTTSSTWEWNADKFELIP

Tests used:
GH16B β-agarase = test: Agarase activity assay (DNS method): effects of metal ions, reducing agent and EDTA on enzymatic activity; type: biochemical, Cellvibrio sp. KY-GH-1; conditions: for Relative activity (%): relative to untreated control, mean ± SD (n = 3); for Effect on the enzymatic activity: 0.5 to 2.5 mM
Experimental: (§1) Quantitative analysis of GH16B β-agarase activity was performed using the DNS method, which detects reducing sugars released from agarose. The enzyme solution (100 μL) was mixed with an equal volume of 0.8% melted agarose in an appropriate buffer. The content of reducing sugars formed in the reaction mixture was determined colorimetrically using DNS reagent after 30 min of incubation at 50° C. The amount of enzyme that produced reducing power equivalent to 1 μmol of D-galactose per min was defined as one unit of enzymatic activity.
(§2) The optimal temperature was determined using 50 mM Tris-HCl buffer (pH 7.0) for 30 min over a temperature range of 25 to 70° C. The optimal pH was determined using 50 mM Mollvaine buffer ([…] to 7.5) and 50 mM Tris-HCl buffer (pH 7.5 to 10.0). For temperature and pH stability assays, aliquots of enzyme were preincubated at the indicated temperature and pH for the indicated time, and then the relative enzyme activity was measured under standard assay conditions (30 min, 50° C., 50 mM Tris-HCl buffer, pH 7.0). The kinetic parameters of GH16B β-agarase were determined by adding a known amount of the enzyme solution to the agarose substrate solution (1 to 5 mg/mL agarose in 50 mM Tris-HCl, pH 7.0). The Lineweaver-Burk equation, generated via GraphPad Prism 8 statistical package (GraphPad Software Inc., USA), was used to calculate Km and Vmax values. To examine the effects of metal ions, reducing agent, and chelator EDTA on enzymatic activity, various metal ions (CaCl2, CuSO4, KCl, MgCl2, MnCl2, MnSO4, and NaCl), TCEP, or EDTA were used at the indicated concentrations under standard analytical conditions.

[1] = Kinetic parameters of GH16B β-agarase (Lineweaver-Burk, DNS method); type: biochemical; conditions: for agarose
Experimental: as §1, §2

[2] = Experimental: as §1
as §2, with “The optimal temperature was determined using 50 mM Tris-HCl buffer (pH 7.0) for 30 min over a temperature range of 25 to 70° C.” left out

[3] = Zymogram for agarase activity on LB agarose plates (Lugol's iodine); type: cell-based, E. coli BL21 (DE3) pLysS transformants; conditions: among transformants expressing GH16A, GH16B, GH16C, GH16D β-agarases
Experimental: E. coli BL21 (DE3) pLysS transformants harboring the recombinant pET-30a plasmid containing GH16A, GH16B, GH16C, or GH16D were spotted onto LB agarose plates (containing 1.5% agarose ((Invitrogen, Life technology, Grand Island, NY, USA), 50 μg/mL chloramphenicol, 25 μg/mL kanamycin, and 0.1 mM IPTG) and then incubated for 3 days at 37° C. The plates were stained with Lugol's at room iodine solution temperature.

[4] = Substrate hydrolysis and agarose liquefaction analysed by TLC and MALDI-TOF/TOF MS; type: biochemical
Experimental: TLC analysis was performed for GH16B β-agarase-catalyzed hydrolysates of agarose, NAOS, or AOS on Silica Gel 60 aluminum plates, which were developed with n-butanol-ethanol-H2O [3:2:2 (v/v)]. To detect oligosaccharides, a visualization solution (containing 0.2% (w/v) naphthoresorcinol, 10% (v/v) H2SO4, ethanol) was sprayed, followed by heating at 80° C. NA2 and the NAOS standard mixture containing NA2-NA18 were used as standards.
MALDI-TOF/TOF MS was performed according to previously described methods to analyze the hydrolytic products of agarose or AOS through enzymatic reactions. The assisted laser desorption/ionization tandem time-of-flight mass spectrometry (MALDI-TOF/TOF MS) was performed in the positive ion reflectron mode using the ultraflextreme system (Bruker Daltonics). The purified reaction product was dissolved in water, 1 μL of the dissolved reaction product was spotted onto a stainless steel target plate, and 0.3 μL of 0.01 M NaCl and […] of 50 mg/mL 2,5-dihydroxybenzoic acid in 50% acetonitrile were added thereto. The spots were rapidly dried under vacuum for homogeneous crystallization. Each acquired spectrum represents the combined signal from 800 laser shots at each of 3 random locations on the spot, totaling 2,400 laser shots, using a 1-kHz laser. The laser attenuator offset and range were set at 68% and 15%, respectively, with the laser focus set at 50%. Mass spectra were recorded over an m/z range of 0 to 5,100. To obtain high-resolution data, the detector sampling rate was set at a maximum of 4.00 giga samples/s, and the detector gain was set at 4.0×. Mass spectra were externally calibrated using maltooligosaccharides isolated from commercial beer. A ladder of hexose polymers, spaced 1 hexose unit (162.053 Da) apart, provided comprehensive coverage of the entire mass acquisition range, enabling the accurate mass calibration of the MALDI-TOF/TOF MS just prior to the sample analysis. Raw MS data were processed with FlexAnalysis software (version 3.3; Bruker Daltonics). […]

| Molecule | Relative activity (%) (GH16B β-agarase; 0.5 mM metal ion/chemical) | Relative activity (%) (GH16B β-agarase; 1.0 mM metal ion/chemical) | Relative activity (%) (GH16B β-agarase; 2.5 mM metal ion/chemical) | Effect on the enzymatic activity (GH16B β-agarase) | other results |
| --- | --- | --- | --- | --- | --- |
| [Ca+2].[Cl-].[Cl-] [CaCl2] | 96 (±1.80) % | 110 (±6.85) % | 103 (±0.90) % | no significant effect | – |
| O=S(=O)([O-])[O-].[Cu+2] [CuSO4] | 103 (±0.25) % | 97 (±1.45) % | 74% | – | – |
| O=C(O)CN(CCN(CC(=O)O)CC(=O)O)CC(=O)O [EDTA, ethylenediamine tetraacetic acid, reference compound] | 95 (±4.75) % | 95 (±2.02) % | 91 (±4.35) % | no significant effect | – |
| [Cl-].[K+] [KCl] | 103 (±1.20) % | 109 (±6.41) % | 104 (±3.45) % | no significant effect | – |
| [Cl-].[Cl-].[Mg+2] [MgCl2] | 94 (±2.80) % | 107 (±0.80) % | 100 (±3.55) % | no significant effect | – |
| [Cl][Mn][Cl] [MnCl2] | 125 (±1.40) % | 163 (±2.60) % | 155 (±3.00) % | – | – |
| O=S(=O)([O-])[O-].[Mn+2] [MnSO4] | 146 (±1.95) % | 156 (±0.70) % | 156 (±1.90) % | – | – |
| [Cl-].[Na+] [NaCl] | 100 (±0.30) % | 109 (±5.33) % | 101 (±2.25) % | no significant effect | – |
| O=C(O)CCP(CCC(=O)O)CCC(=O)O [TCEP, tris(2-carboxyethyl)phosphine, reference compound] | 100 (±1.55) % | 109 (±2.85) % | 117 (±6.00) % | – | Enhancement of enzymatic activity (GH16B β-agarase; 5 to 15 mM TCEP, dose-dependent, 0.8 μg/mL enzyme, 0.4% agarose, pH 7.0, 50° C., 30 min): up to 1.6 fold |
| B1 | – | – | – | – | Vmax [1]: 542.0 U/mg; kcat [1]: 576.3 s⁻¹; Km ([1]; 50 mM Tris-HCl, pH 7.0): 14.40 mg/mL; Optimum pH [2]: 7.0; Optimal temperature (highest activity) ([2]; 0.4% agarose, 0.8 μg/mL enzyme, pH 7.0, 30 min): 50 °C; Maximum activity retained ([2]; over the range of 25 to 60° C.): more than 80%; pH stability ([2]; pH 4): rapidly became inactive; Agarose-degrading activity (bright clear zone around the colonies) [3]: highest; Agarose concentration completely hydrolysed into NA4/NA6 ([4]; 1.6 μg/mL enzyme, 1 mM MnCl2, 10 mM TCEP, 50 mM Tris-HCl, pH 7.5, 50° C., 14 hours, magnetic stirring): up to 9.0%; End products of hydrolysis ([4]; AOS substrate): NA4/NA6 but also A5; End products of hydrolysis ([4]; agarose substrate): NA4 and NA6 |
